Source: patent US20050049242A1 (priority 2000, published 2005)
Read-outs that look alike come from different tables or passages of the source.

Legend:
HIV-1 IN = HIV-1 IN (Human immunodeficiency virus type 1 group M subtype B, UniProt P12497); test: biochemical
HIVLAI = test: Anti-HIV assay, protection from HIV-induced cell death; assay type: cell-based; conditions: read-out: ED50 (concentration that inhibits HIV-induced cell death by 50%)
Experimental: Anti-HIV assays were performed as described above. […] The compounds were then two-fold serially diluted in triplicate. To each 50 μl of diluted compound, 50 μl of HIVLAI was added and the virus-drug mixture was incubated for 1 hr at 37° C. […] Final multiplicity of infection (MOI) was 1-5. Cells were harvested to quantitate cytopathic effect using a neutral red dye assay as described.

MT-2 cells = conditions: 48 hours
Description: The chemical structures of the compounds are illustrated in FIGS. 1-4. In FIG. 1a, the D- and meso-isomers of L-chicoric acid are identical in this illustrative format. […] The first compound in Table 1, L-chicoric acid, a previously described DCTA, is included for reference. LD5, the 5% lethal dose, is a measure of the toxicity of compound to living, cultured cells. It is the concentration at which cell growth is inhibited by 5%. […] Most simply understood, disintegration is a term used to refer to the reverse of integration.
Cell toxicity and anti-HIV assays were performed as reported above. […] Cells were incubated with drug for 48 hours at 37° C., then harvested for cell viability in a neutral red dye assay as described.

HIV-1NL4-3clone1-D4 = assay type: cell-based; conditions: for Fold Change (ED50 resistant clone vs HIVNL4-3): HIVNL4-3clone1-D4 vs HIVNL4-3; for efficacy against the L-chicoric acid resistant clone: compared with parental HIVNL4-3; for EC50: mean of triplicate infections, read-out: ED50 HIVNL4-3clone1-D4
Experimental: (§1) Cloning and sequencing of virus from the HIVNL4-3 passaged in the presence of 8 μM L-chicoric acid was undertaken to determine the molecular basis for resistance to L-chicoric acid and to isolate a resistant HIV clone.
This cloning was accomplished through site-directed mutagenesis introducing several silent mutations immediately upstream and downstream of the integrase gene. These mutations generated two unique restriction sites: an upstream SacII and a downstream XbaI (FIG. 15). Introduction of these mutations allowed the entire integrase gene with only minimal upstream and downstream nucleotides to be digested and “swapped” between drug-resistant and drug-sensitive clones.

HIV-1NL4-3 = test: Anti-HIV cytopathicity assay against parental molecular clone; assay type: cell-based; conditions: mean of triplicate infections; read-out: ED50 HIVNL4-3
Experimental: as §1
Assays, as described above, to determine the ED50 for a given compound against the molecular clone HIVNL4-3clone1-D4 and the parental clone HIVNL4-3 give an indication of the selectivity of the compound for inhibition of HIV replication through IN. Resistance to a compound, as measured by an increased ED50, by clone HIVNL4-3clone1-D4, implies selectivity of the compound for IN. Thus clone HIVNL4-3clone1-D4 can be used to screen candidate IN inhibitors for selectivity.

[1] = Human immunodeficiency virus 1, MT2, 72 h

Q: For `O=C(/C=C/c1ccc(O)c(O)c1)OC[C@H](OC(=O)/C=C/c1ccc(O)c(O)c1)C(=O)O` [Compound 19, Dicaffeoyl-L-glyceric acid], which IC50 (HIV-1 IN) is on record?
A: The IC50 was 520 nM.

Q: What about the EC50 (HIVLAI; [1]) of the same compound?
A: The EC50 was 2300 nM.

Q: And the “LD5 (5% lethal dose, concentration at which cell growth is inhibited by 5%)” value (MT-2 cells)?
A: Its value is 145 µM.

Q: `O=C(O[C@@H](C(=O)O)[C@@H](OC(=O)c1cc(O)c(O)c(O)c1)C(=O)O)c1cc(O)c(O)c(O)c1` [Compound 25] was tested. Which EC50 (HIVLAI; HIVLAI, MT-2 cells, 72 hr) did it give?
A: Its EC50 is 660 nM.

Q: And the “Fold Change (ED50 resistant clone vs HIVNL4-3)” value (HIV-1NL4-3clone1-D4)?
A: The value was 107.

Q: And the “efficacy against the L-chicoric acid resistant clone” value (HIV-1NL4-3clone1-D4)?
A: Its value is “reduced efficacy”.

Q: What about the EC50 (HIV-1NL4-3clone1-D4) of the same compound?
A: The EC50 was 31200 nM.

Q: And the EC50 (HIV-1NL4-3)?
A: Its EC50 is 290 nM.

Q: What about the “LD5 (5% lethal dose, concentration at which cell growth is inhibited by 5%)” value (MT-2 cells) of the same compound?
A: The value was 2.7 µM.

Q: Which results are given for `O=C(O[C@@H](C(=O)O)[C@@H](OC(=O)c1ccc(O)c(O)c1)C(=O)O)c1ccc(O)c(O)c1` [Compound 26]?
A: EC50 (HIVLAI; HIVLAI, MT-2 cells, 72 hr): 950 nM; Fold Change (ED50 resistant clone vs HIVNL4-3) (HIV-1NL4-3clone1-D4): 64; efficacy against the L-chicoric acid resistant clone (HIV-1NL4-3clone1-D4): reduced efficacy; EC50 (HIV-1NL4-3clone1-D4): 52500 nM; EC50 (HIV-1NL4-3): 820 nM; LD5 (5% lethal dose, concentration at which cell growth is inhibited by 5%) (MT-2 cells): 90 µM

Q: Which EC50 (HIVLAI; HIVLAI, MT-2 cells, 72 hr) does the source give for `O=C(Cc1ccc(O)c(O)c1)O[C@@H](C(=O)O)[C@@H](OC(=O)Cc1ccc(O)c(O)c1)C(=O)O` [Compound 28] here?
A: The EC50 was 35000 nM.

Q: What about the “Fold Change (ED50 resistant clone vs HIVNL4-3)” value (HIV-1NL4-3clone1-D4) of the same compound?
A: The value was 4.

Q: What about the “efficacy against the L-chicoric acid resistant clone” value (HIV-1NL4-3clone1-D4) of the same compound?
A: The value was “reduced efficacy”.

Q: And the EC50 (HIV-1NL4-3clone1-D4)?
A: The EC50 was 62500 nM.

Q: And the EC50 (HIV-1NL4-3)?
A: The EC50 was 15600 nM.

Q: What about the “LD5 (5% lethal dose, concentration at which cell growth is inhibited by 5%)” value (MT-2 cells) of the same compound?
A: The value was 70 µM.

Q: Which IC50 (HIV-1 IN) does the source give for `O=C(C=Cc1ccc(O)c(O)c1)NCC(NC(=O)C=Cc1ccc(O)c(O)c1)C(=O)O` (stereo not drawn) [Compound 35, 2-3-dicaffeoyldiamidopropionic acid] here?
A: Its IC50 is 570 nM.

Q: What about the EC50 (HIVLAI; [1]) of the same compound?
A: The EC50 was 70000 nM.

Q: And the “LD5 (5% lethal dose, concentration at which cell growth is inhibited by 5%)” value (MT-2 cells)?
A: The value was 50 µM.

Q: For `O=C(C=Cc1ccc(O)c(O)c1)Nc1ccc(C(=O)O)cc1NC(=O)C=Cc1ccc(O)c(O)c1` [Compound 36, Bis-3,4-dicaffeoyldiamidobenzoic acid], which IC50 (HIV-1 IN) is on record?
A: The IC50 was 734 nM.

Q: And the EC50 (HIVLAI; [1])?
A: The EC50 was 4600 nM.

Q: And the “LD5 (5% lethal dose, concentration at which cell growth is inhibited by 5%)” value (MT-2 cells)?
A: Its value is 47 µM.
